SMILES strings stand for the structures.

One series relates to PC-3. As to conditions: read-out: IC50 for PC-3; reported by the National Cancer Institute; cited from earlier work.
In series [1] the test system is MCF-7 human breast cancer cells. Nature of the series: in vitro cytotoxicity, resazurin dye, 72 h. As to conditions: MCF7, 72 h, read-out: MCF-7 IC50. The class given is cell-based. (Resazurin is reduced to fluorescent resorufin, in cell work by metabolically active cells.)
Series [2] deals with PC-3 human prostate cells. As to the kind of experiment: in vitro cytotoxicity, resazurin dye, 72 h. The class given is cell-based. Conditions: Prostate cell, read-out: PC-3 IC50.
The test system of the next series is MCF-7. Conditions: read-out: IC50 for MCF-7; reported by the National Cancer Institute; cited from earlier work.
Series [3] is classed as physicochemical. Conditions: 0.3 mM PEO-b-PDLLA, 10% w/w drug, dialysis in ddH2O, 37 °C, pH 7.4.
The format of series [4] is physicochemical.
For series [5] the following is noted: cited from earlier work.
For another series, the system named is dogs. As to conditions: in dogs; cited from earlier work.

As usually defined, the IC50 is the concentration needed to halve the response being measured. Turning to `C=CCNC1=C2C[C@@H](C)C[C@H](OC)[C@H](O)[C@@H](C)/C=C(\C)[C@H](OC(N)=O)[C@@H](OC)/C=C\C=C(/C)C(=O)NC(=CC1=O)C2=O` [17-AAG, 17-allylamino-17-demethoxygeldanamycin], the IC50 with PC-3 is 50.1 nM; in series [1], 22 ± 14 nM; in series [2] it was 74 ± 14 nM; in the series with MCF-7, 12.6 nM. Also, the release half-life entry in series [3] was “similar”. In series [4] (0.3 mM PEO-b-PDLLA micelle solution), the “17-AAG : PEO-b-PDLLA” value is reported as 0.47 ± 0.068 mol:mol. The same compound had a Loading efficiency in series [4] (17-AAG loaded 1.4% divided by loading attempted 10% w/w) of 14 ± 2.0%. Further, in series [4] (in PEO-b-PDLLA (12:6 kDa) micelles versus ca. 10 μg/mL), the “increase in solubility over 17-AAG alone” value was “ca. 150 fold”. The compound also yielded a 17-AAG loaded in series [4] (weight 17-AAG solubilized versus total weight of carrier (17-AAG and PEO-b-PDLLA), 0.3 mM PEO-b-PDLLA) of 0.014 ± 0.0020 mg/mg. In addition, the aqueous solubility result in series [5] is given as “ca. 0.01 mg/mL”. Moreover, in the series on dogs, the maximum tolerated dose is 100–200 mg/m^2/day.
Regarding `CO[C@H]1/C=C\C=C(/C)C(=O)NC2=CC(=O)C(NCCN(C)C)=C(C[C@@H](C)C[C@H](OC)[C@H](O)[C@@H](C)/C=C(\C)[C@@H]1OC(N)=O)C2=O` [17-DMAG, 17-dimethylaminoethylamino-17-demethoxygeldanamycin], the maximum tolerated dose in the series on dogs is on record as 8 mg/m^2/day.

The values are drawn from paper PMC2649998 (Journal of pharmaceutical sciences, 2009).
